How the values were obtained:
Conditions in all cases: 48 h
P12-Ichikawa [1] = assay: AUC of viability dose-response curve (% viability x log10 dose units); higher = less sensitive
Method in brief: (§1)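 Leukemia cells adapted to each medium were seeded at 500 or 1000 cells/well in 1536-well plates and dosed with library compounds in DMSO at 11 threefold doses from 47 μM to 0.79 nM for 48 h at 37°C. CellTiter-Glo One luminescence was normalised per plate to DMSO and cell-free wells, then fitted with a four-parameter log-logistic model over log10 doses. Area under the curve was taken from this fit by the trapezoidal rule, with curves above full viability scaled and curves failing quality control removed.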

SEM cells [2] = assay: as above
Method in brief: as §1

NOMO1 [3] = assay: as above
Method in brief: as §1

P12-Ichikawa [4] = assay: cell viability relative to DMSO control; higher = less cytotoxic
Method in brief: (§2)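 Leukemia cells (NOMO1 or SEM, 500 cells/well; P12-Ichikawa, 1000 cells/well) were seeded in 5 μl in 1536-well plates after at least four passages of adaptation to each medium. They received library compounds in DMSO by pin dosing, 11 threefold points from 47 μM to 0.79 nM. Luminescence with CellTiter-Glo One was read after 48 h at 37°C. Viability is stated per plate relative to DMSO wells, with cell-free wells as background.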

SEM cells [5] = assay: as above
Method in brief: as §2

NOMO1 [6] = assay: as above
Method in brief: as §2

N#C[C@H](O[C@@H]1O[C@H](CO[C@@H]2O[C@H](CO)[C@@H](O)[C@H](O)[C@H]2O)[C@@H](O)[C@H](O)[C@H]1O)c1ccccc1
AUC of viability dose-response curve
Conditions | NOMO1 [3] | P12-Ichikawa [1] | SEM cells [2]
HPLM + 10% dialyzed FBS | 454 | 454 | 462
RPMI 5 mM glucose + 10% FBS | 435 | 446 | 452
RPMI 5 mM glucose + 10% dialyzed FBS | 448 | 427 | 452

cell viability [%]
Conditions | NOMO1 [6] | P12-Ichikawa [4] | SEM cells [5]
HPLM + 10% dialyzed FBS, 0.000781 µM | 108 | 110 | 114
HPLM + 10% dialyzed FBS, 0.00234 µM | 96.9 | 106 | 103
HPLM + 10% dialyzed FBS, 0.00702 µM | 120 | 108 | 113
HPLM + 10% dialyzed FBS, 0.0211 µM | 115 | 102 | 127
HPLM + 10% dialyzed FBS, 0.0632 µM | 99.1 | 103 | 115
HPLM + 10% dialyzed FBS, 0.19 µM | 102 | 96.6 | 118
HPLM + 10% dialyzed FBS, 0.569 µM | 100 | 99.5 | 108
HPLM + 10% dialyzed FBS, 1.71 µM | 96.6 | 97.7 | 102
HPLM + 10% dialyzed FBS, 5.12 µM | 103 | 90.8 | 110
HPLM + 10% dialyzed FBS, 15.4 µM | 95.9 | 91.7 | 114
HPLM + 10% dialyzed FBS, 46.1 µM | 19.5 | 55.4 | 41.8
RPMI 5 mM glucose + 10% FBS, 0.000781 µM | 90.5 | 99.5 | 106
RPMI 5 mM glucose + 10% FBS, 0.00234 µM | 117 | 98.5 | 98.3
RPMI 5 mM glucose + 10% FBS, 0.00702 µM | 104 | 92.5 | 120
RPMI 5 mM glucose + 10% FBS, 0.0211 µM | 89.4 | 97.5 | 112
RPMI 5 mM glucose + 10% FBS, 0.0632 µM | 97.3 | 104 | 99.8
RPMI 5 mM glucose + 10% FBS, 0.19 µM | 93.5 | 99.5 | 102
RPMI 5 mM glucose + 10% FBS, 0.569 µM | 96.3 | 94.2 | 112
RPMI 5 mM glucose + 10% FBS, 1.71 µM | 84.5 | 88.4 | 94.8
RPMI 5 mM glucose + 10% FBS, 5.12 µM | 93.4 | 89.9 | 94.5
RPMI 5 mM glucose + 10% FBS, 15.4 µM | 85.1 | 94.5 | 95.7
RPMI 5 mM glucose + 10% FBS, 46.1 µM | 16 | 48.5 | 20.6
RPMI 5 mM glucose + 10% dialyzed FBS, 0.000781 µM | 106 | 98.6 | 97.4
RPMI 5 mM glucose + 10% dialyzed FBS, 0.00234 µM | 110 | 96.2 | 104
RPMI 5 mM glucose + 10% dialyzed FBS, 0.00702 µM | 103 | 95.6 | 97.4
RPMI 5 mM glucose + 10% dialyzed FBS, 0.0211 µM | 115 | 101 | 122
RPMI 5 mM glucose + 10% dialyzed FBS, 0.0632 µM | 109 | 97.6 | 99
RPMI 5 mM glucose + 10% dialyzed FBS, 0.19 µM | 96.2 | 86.1 | 99.7
RPMI 5 mM glucose + 10% dialyzed FBS, 0.569 µM | 101 | 90.6 | 97.5
RPMI 5 mM glucose + 10% dialyzed FBS, 1.71 µM | 97.6 | 89 | 101
RPMI 5 mM glucose + 10% dialyzed FBS, 5.12 µM | 98.1 | 82.9 | 91.4
RPMI 5 mM glucose + 10% dialyzed FBS, 15.4 µM | 88.8 | 87.3 | 92.2
RPMI 5 mM glucose + 10% dialyzed FBS, 46.1 µM | 9.62 | 31.8 | 15.3

O=c1[nH]c(=O)n(C2CCCO2)cc1F (stereo unspecified)
AUC of viability dose-response curve
Conditions | NOMO1 [3] | P12-Ichikawa [1] | SEM cells [2]
HPLM + 10% dialyzed FBS | 468 | 466 | 448
RPMI 5 mM glucose + 10% FBS | 455 | 467 | 467
RPMI 5 mM glucose + 10% dialyzed FBS | 447 | 470 | 469

cell viability [%]
Conditions | NOMO1 [6] | P12-Ichikawa [4] | SEM cells [5]
HPLM + 10% dialyzed FBS, 0.000781 µM | – | 122 | 92.4
HPLM + 10% dialyzed FBS, 0.00234 µM | – | 124 | 124
HPLM + 10% dialyzed FBS, 0.00702 µM | – | 126 | 105
HPLM + 10% dialyzed FBS, 0.0211 µM | – | 125 | 119
HPLM + 10% dialyzed FBS, 0.0632 µM | – | 125 | 122
HPLM + 10% dialyzed FBS, 0.19 µM | – | 124 | 127
HPLM + 10% dialyzed FBS, 0.569 µM | – | 123 | 92.5
HPLM + 10% dialyzed FBS, 1.71 µM | – | 123 | 111
HPLM + 10% dialyzed FBS, 5.12 µM | – | 112 | 90.2
HPLM + 10% dialyzed FBS, 15.4 µM | – | 110 | 104
HPLM + 10% dialyzed FBS, 46.1 µM | – | 116 | 99.1
RPMI 5 mM glucose + 10% FBS, 0.000781 µM | 10.4 | – | 123
RPMI 5 mM glucose + 10% FBS, 0.00234 µM | 124 | – | 120
RPMI 5 mM glucose + 10% FBS, 0.00702 µM | 108 | – | 109
RPMI 5 mM glucose + 10% FBS, 0.0211 µM | 116 | – | 126
RPMI 5 mM glucose + 10% FBS, 0.0632 µM | 105 | – | 115
RPMI 5 mM glucose + 10% FBS, 0.19 µM | 131 | – | 110
RPMI 5 mM glucose + 10% FBS, 0.569 µM | 106 | – | 127
RPMI 5 mM glucose + 10% FBS, 1.71 µM | 110 | – | 114
RPMI 5 mM glucose + 10% FBS, 5.12 µM | 116 | – | 123
RPMI 5 mM glucose + 10% FBS, 15.4 µM | 111 | – | 122
RPMI 5 mM glucose + 10% FBS, 46.1 µM | 109 | – | 104
RPMI 5 mM glucose + 10% dialyzed FBS, 0.000781 µM | – | 88.6 | 70.2
RPMI 5 mM glucose + 10% dialyzed FBS, 0.00234 µM | – | 126 | 110
RPMI 5 mM glucose + 10% dialyzed FBS, 0.00702 µM | – | 120 | 109
RPMI 5 mM glucose + 10% dialyzed FBS, 0.0211 µM | – | 128 | 117
RPMI 5 mM glucose + 10% dialyzed FBS, 0.0632 µM | – | 130 | 99.7
RPMI 5 mM glucose + 10% dialyzed FBS, 0.19 µM | – | 120 | 115
RPMI 5 mM glucose + 10% dialyzed FBS, 0.569 µM | – | 122 | 108
RPMI 5 mM glucose + 10% dialyzed FBS, 1.71 µM | – | 121 | 109
RPMI 5 mM glucose + 10% dialyzed FBS, 5.12 µM | – | 119 | 102
RPMI 5 mM glucose + 10% dialyzed FBS, 15.4 µM | – | 108 | 104
RPMI 5 mM glucose + 10% dialyzed FBS, 46.1 µM | – | 115 | 97.8

COc1cc(C(=O)NS(=O)(=O)c2ccccc2C)ccc1Cc1cn(C)c2ccc(NC(=O)OC3CCCC3)cc12
AUC of viability dose-response curve
Conditions | NOMO1 [3] | P12-Ichikawa [1] | SEM cells [2]
HPLM + 10% dialyzed FBS | 371 | 411 | 323
RPMI 5 mM glucose + 10% FBS | 378 | 380 | 338
RPMI 5 mM glucose + 10% dialyzed FBS | 384 | 383 | 319

cell viability [%]
Conditions | NOMO1 [6] | P12-Ichikawa [4] | SEM cells [5]
HPLM + 10% dialyzed FBS, 0.000781 µM | 66.5 | 73.2 | 59.7
HPLM + 10% dialyzed FBS, 0.00234 µM | 66.3 | 81.6 | 55.9
HPLM + 10% dialyzed FBS, 0.00702 µM | 75.8 | 85.9 | 66.9
HPLM + 10% dialyzed FBS, 0.0211 µM | 91.5 | 90.7 | 73.4
HPLM + 10% dialyzed FBS, 0.0632 µM | 79.7 | 89.8 | 87.5
HPLM + 10% dialyzed FBS, 0.19 µM | 77.8 | 86.6 | 90
HPLM + 10% dialyzed FBS, 0.569 µM | 87.3 | 86.5 | 80.7
HPLM + 10% dialyzed FBS, 1.71 µM | 87.3 | 89.1 | 70
HPLM + 10% dialyzed FBS, 5.12 µM | 87.1 | 88.8 | 64.4
HPLM + 10% dialyzed FBS, 15.4 µM | 83.8 | 104 | 62.6
HPLM + 10% dialyzed FBS, 46.1 µM | 31.1 | 72.3 | 5.13
RPMI 5 mM glucose + 10% FBS, 0.000781 µM | 77.7 | 82.7 | 85.4
RPMI 5 mM glucose + 10% FBS, 0.00234 µM | 86.9 | 78.3 | 83.3
RPMI 5 mM glucose + 10% FBS, 0.00702 µM | 79.6 | 79.2 | 73.3
RPMI 5 mM glucose + 10% FBS, 0.0211 µM | 80.1 | 88.1 | 63.4
RPMI 5 mM glucose + 10% FBS, 0.0632 µM | 77.6 | 77.8 | 92.4
RPMI 5 mM glucose + 10% FBS, 0.19 µM | 86.5 | 83.6 | 85.2
RPMI 5 mM glucose + 10% FBS, 0.569 µM | 82.4 | 84.4 | 39.6
RPMI 5 mM glucose + 10% FBS, 1.71 µM | 87.6 | 85 | 70.5
RPMI 5 mM glucose + 10% FBS, 5.12 µM | 85.2 | 90.1 | 78.9
RPMI 5 mM glucose + 10% FBS, 15.4 µM | 80.4 | 87 | 71.3
RPMI 5 mM glucose + 10% FBS, 46.1 µM | 18.9 | 5.73 | 4.48
RPMI 5 mM glucose + 10% dialyzed FBS, 0.000781 µM | 68 | 76.9 | 69.7
RPMI 5 mM glucose + 10% dialyzed FBS, 0.00234 µM | 84.5 | 74 | 54.8
RPMI 5 mM glucose + 10% dialyzed FBS, 0.00702 µM | 76.4 | 76.6 | 64.2
RPMI 5 mM glucose + 10% dialyzed FBS, 0.0211 µM | 92.9 | 81.6 | 76.6
RPMI 5 mM glucose + 10% dialyzed FBS, 0.0632 µM | 88.8 | 83.8 | 77.9
RPMI 5 mM glucose + 10% dialyzed FBS, 0.19 µM | 99.7 | 78.3 | 83.2
RPMI 5 mM glucose + 10% dialyzed FBS, 0.569 µM | 83.5 | 89.6 | 62.4
RPMI 5 mM glucose + 10% dialyzed FBS, 1.71 µM | 81.6 | 82.3 | 76.5
RPMI 5 mM glucose + 10% dialyzed FBS, 5.12 µM | 86.1 | 92.5 | 63
RPMI 5 mM glucose + 10% dialyzed FBS, 15.4 µM | 81.2 | 87.4 | 72.5
RPMI 5 mM glucose + 10% dialyzed FBS, 46.1 µM | 6.79 | 44.2 | 5.4

Source: the supplement of paper PMC11451515
